These results are taken from ChEMBL document CHEMBL3112480, “γ-Alkylidene-γ-lactones and isobutylpyrrol-2(5H)-ones analogues to rubrolides as inhibitors of biofilm formation by gram-positive and gram-negative bacteria” (Bioorg Med Chem Lett, 2014).

Molecules are shown by their SMILES. Values after ≈ are worked out from the molar mass of the structure shown.

The first assay deals with Staphylococcus epidermidis. The assay is described as follows: Antibacterial activity against Staphylococcus epidermidis ATCC 35547 assessed as effect on planktonic growth at 10.9 ug/ml after 20 hrs relative to control. It counts as functional.
Details: not given
As to `COc1ccc(Br)cc1C1=C(Br)C(=O)N(CC(C)C)/C1=C/c1cccc(Cl)c1`, the Activity was 10.8%.

In a further assay the test system is Staphylococcus aureus. The assay is described as follows: Antibacterial activity against Staphylococcus aureus ATCC 25923 assessed as effect on planktonic growth at 2.73 ug/ml after 20 hrs relative to control. It counts as functional.
Details: not given
Turning to `COc1ccc(Br)cc1C1=C(Br)C(=O)N(CC(C)C)/C1=C/c1cccc(Cl)c1`, the Activity is -14%.

The subject of a further assay is Pseudomonas aeruginosa. The assay is described as follows: Antibacterial activity against Pseudomonas aeruginosa ATCC 27853 assessed as effect on planktonic growth at 0.68 ug/ml after 20 hrs relative to control. The format is functional.
Details: not given
For the compound `COc1ccc(Br)cc1C1=C(Br)C(=O)N(CC(C)C)/C1=C/c1cccc(Cl)c1`, the Activity was 3.4%.

The subject of another assay is Staphylococcus aureus. The assay is described as follows: Antibacterial activity against Staphylococcus aureus ATCC 25923 assessed as effect on planktonic growth at 21.9 ug/ml after 20 hrs relative to control.
Details: not given
The format is functional.
As to `COc1ccc(Br)cc1C1=C(Br)C(=O)N(CC(C)C)/C1=C/c1cccc(Cl)c1`, the Activity is listed as -13.1%.

The next assay deals with Staphylococcus aureus. The assay is described as follows: Antibacterial activity against Staphylococcus aureus ATCC 25923 assessed as effect on planktonic growth at 5.5 ug/ml after 20 hrs relative to control. The format is functional.
Details: not given
Take `COc1ccc(Br)cc1C1=C(Br)C(=O)N(CC(C)C)/C1=C/c1cccc(Cl)c1`: the Activity is recorded as -16%.

Another assay concerns Staphylococcus aureus. The assay is described as follows: Antibacterial activity against Staphylococcus aureus ATCC 25923 assessed as effect on planktonic growth at 10.9 ug/ml after 20 hrs relative to control.
Details: not given
The format is functional.
Turning to `COc1ccc(Br)cc1C1=C(Br)C(=O)N(CC(C)C)/C1=C/c1cccc(Cl)c1`, the Activity is reported as -11.9%.

The test system of a further assay is Staphylococcus aureus. The assay is described as follows: Antibacterial activity against Staphylococcus aureus ATCC 25923 assessed as effect on planktonic growth at 43.8 ug/ml after 20 hrs relative to control.
Details: not given
It counts as functional.
For `COc1ccc(Br)cc1C1=C(Br)C(=O)N(CC(C)C)/C1=C/c1cccc(Cl)c1`, the Activity was -5.2%.

A further assay has as its system Streptococcus mutans. Description: Antibacterial activity against Streptococcus mutans ATCC 25175 assessed as effect on planktonic growth at 0.17 ug/ml after 20 hrs relative to control. The format is functional.
Details: not given
Regarding `COc1ccc(Br)cc1C1=C(Br)C(=O)N(CC(C)C)/C1=C/c1cccc(Cl)c1`, the Activity is reported as 6%.

The subject of another assay is Pseudomonas aeruginosa. Description: Antibacterial activity against Pseudomonas aeruginosa ATCC 27853 assessed as effect on planktonic growth at 0.34 ug/ml after 20 hrs relative to control. It counts as functional.
Details: not given
Turning to `COc1ccc(Br)cc1C1=C(Br)C(=O)N(CC(C)C)/C1=C/c1cccc(Cl)c1`, the Activity is recorded as -3.3%.

The subject of a further assay is Streptococcus mutans. The assay is described as follows: Antibacterial activity against Streptococcus mutans ATCC 25175 assessed as effect on planktonic growth at 43.8 ug/ml after 20 hrs relative to control.
Details: not given
The format is functional.
In the case of `COc1ccc(Br)cc1C1=C(Br)C(=O)N(CC(C)C)/C1=C/c1cccc(Cl)c1`, the Activity is 2.5%.

Another assay relates to Staphylococcus epidermidis. Description: Antibacterial activity against Staphylococcus epidermidis ATCC 35547 assessed as effect on planktonic growth at 1.37 ug/ml after 20 hrs relative to control. The format is functional.
Details: not given
For `COc1ccc(Br)cc1C1=C(Br)C(=O)N(CC(C)C)/C1=C/c1cccc(Cl)c1`, the Activity came to 1%.

The subject of a further assay is Streptococcus mutans. Description: Antibacterial activity against Streptococcus mutans ATCC 25175 assessed as effect on planktonic growth at 10.9 ug/ml after 20 hrs relative to control. The format is functional.
Details: not given
In the case of `COc1ccc(Br)cc1C1=C(Br)C(=O)N(CC(C)C)/C1=C/c1cccc(Cl)c1`, the Activity was 8.3%.

A further assay has as its system Staphylococcus epidermidis. Description: Antibacterial activity against Staphylococcus epidermidis ATCC 35547 assessed as effect on planktonic growth at 43.8 ug/ml after 20 hrs relative to control.
Details: not given
It counts as functional.
As to `COc1ccc(Br)cc1C1=C(Br)C(=O)N(CC(C)C)/C1=C/c1cccc(Cl)c1`, the Activity was determined as 56.1%.

The next assay has as its system Streptococcus mutans. The assay is described as follows: Antibacterial activity against Streptococcus mutans ATCC 25175 assessed as effect on planktonic growth at 0.34 ug/ml after 20 hrs relative to control. It counts as functional.
Details: not given
Regarding `COc1ccc(Br)cc1C1=C(Br)C(=O)N(CC(C)C)/C1=C/c1cccc(Cl)c1`, the Activity was 7%.

For another assay, the system named is Streptococcus mutans. Description: Antibacterial activity against Streptococcus mutans ATCC 25175 assessed as effect on planktonic growth at 2.73 ug/ml after 20 hrs relative to control. It counts as functional.
Details: not given
For the compound `COc1ccc(Br)cc1C1=C(Br)C(=O)N(CC(C)C)/C1=C/c1cccc(Cl)c1`, the Activity came out at 12.6%.

Another assay deals with Pseudomonas aeruginosa. The assay is described as follows: Antibacterial activity against Pseudomonas aeruginosa ATCC 27853 assessed as effect on planktonic growth at 5.5 ug/ml after 20 hrs relative to control.
Details: not given
The format is functional.
As for `COc1ccc(Br)cc1C1=C(Br)C(=O)N(CC(C)C)/C1=C/c1cccc(Cl)c1`, the Activity is listed as -4%.

A further assay relates to Staphylococcus epidermidis. Description: Antibacterial activity against Staphylococcus epidermidis ATCC 35547 assessed as inhibition of biofilm formation after 20 hrs by crystal-violet staining method. It counts as functional, organism-based.
Details: not given
`COc1ccc(Br)cc1C1=C(Br)C(=O)N(CC(C)C)/C1=C/c1cccc(Cl)c1`: the inhibition entry was “Dose-dependent effect”.

Still in this assay, the particulars now being: ATCC 35547, 20 h.
As to `COc1ccc(Br)cc1C1=C(Br)C(=O)N(CC(C)C)/C1=C/c1cccc(Cl)c1`, the half-inhibitory concentration (IC50) (usually the point on the concentration scale where inhibition reaches its midpoint) is 46.7 µg/mL (≈ 88.8 µM).

The test system of another assay is Pseudomonas aeruginosa. Description: Antibacterial activity against Pseudomonas aeruginosa ATCC 27853 assessed as effect on planktonic growth at 43.8 ug/ml after 20 hrs relative to control. The format is functional.
Details: not given
Turning to `COc1ccc(Br)cc1C1=C(Br)C(=O)N(CC(C)C)/C1=C/c1cccc(Cl)c1`, the Activity was -3.2%.

The next assay relates to Staphylococcus aureus. Description: Antibacterial activity against Staphylococcus aureus ATCC 25923 assessed as effect on planktonic growth at 87.5 ug/ml after 20 hrs relative to control. The format is functional.
Details: not given
`COc1ccc(Br)cc1C1=C(Br)C(=O)N(CC(C)C)/C1=C/c1cccc(Cl)c1`: the Activity turned out to be 12.8%.

A further assay relates to Pseudomonas aeruginosa. The assay is described as follows: Antibacterial activity against Pseudomonas aeruginosa ATCC 27853 assessed as effect on planktonic growth at 87.5 ug/ml after 20 hrs relative to control.
Details: not given
The format is functional.
Regarding `COc1ccc(Br)cc1C1=C(Br)C(=O)N(CC(C)C)/C1=C/c1cccc(Cl)c1`, the Activity worked out at 15.5%.

A further assay concerns Streptococcus mutans. The assay is described as follows: Antibacterial activity against Streptococcus mutans ATCC 25175 assessed as effect on planktonic growth at 0.68 ug/ml after 20 hrs relative to control. The format is functional.
Details: not given
Turning to `COc1ccc(Br)cc1C1=C(Br)C(=O)N(CC(C)C)/C1=C/c1cccc(Cl)c1`, the Activity is given as -6.5%.
